Data set [1] concerns the target CYP2C19 (Homo sapiens, UniProt P33261). Nature of the data set: Inhibition of human CYP2C19 at 1 uM. In kind it is ADME.
Data set [2] has as its target CYP2D6 (Homo sapiens, UniProt P10635). Nature of the data set: Inhibition of human CYP2D6 at 1 uM. In kind it is ADME.
For data set [3], the target named is CYP3A4 (Homo sapiens, UniProt P08684). The data set can be described thus: Inhibition of human CYP3A4 at 1 uM. Type of data set: ADME.
Data set [4] deals with CYP2C9 (Homo sapiens, UniProt P11712). The data set can be described thus: Inhibition of human CYP2C9 at 1 uM. In kind it is ADME.
Sequence of CYP2C9 (P11712 whole entry): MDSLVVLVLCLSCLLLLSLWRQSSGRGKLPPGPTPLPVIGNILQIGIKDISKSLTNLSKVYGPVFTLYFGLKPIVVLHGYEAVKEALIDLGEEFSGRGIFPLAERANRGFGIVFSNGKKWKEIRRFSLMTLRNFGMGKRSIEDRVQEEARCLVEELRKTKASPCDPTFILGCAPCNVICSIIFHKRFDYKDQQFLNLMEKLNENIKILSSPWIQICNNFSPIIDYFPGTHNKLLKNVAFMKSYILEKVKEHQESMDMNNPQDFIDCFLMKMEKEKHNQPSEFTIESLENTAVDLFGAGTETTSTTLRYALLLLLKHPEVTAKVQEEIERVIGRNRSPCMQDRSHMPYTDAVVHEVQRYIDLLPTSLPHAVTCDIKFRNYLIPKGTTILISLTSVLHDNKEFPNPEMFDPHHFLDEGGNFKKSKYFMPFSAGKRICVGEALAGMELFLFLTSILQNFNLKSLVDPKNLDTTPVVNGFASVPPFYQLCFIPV
For data set [5], the target named is T1, CYP1A2 (Homo sapiens, UniProt P05177).
T1 sequence (P05177 whole entry): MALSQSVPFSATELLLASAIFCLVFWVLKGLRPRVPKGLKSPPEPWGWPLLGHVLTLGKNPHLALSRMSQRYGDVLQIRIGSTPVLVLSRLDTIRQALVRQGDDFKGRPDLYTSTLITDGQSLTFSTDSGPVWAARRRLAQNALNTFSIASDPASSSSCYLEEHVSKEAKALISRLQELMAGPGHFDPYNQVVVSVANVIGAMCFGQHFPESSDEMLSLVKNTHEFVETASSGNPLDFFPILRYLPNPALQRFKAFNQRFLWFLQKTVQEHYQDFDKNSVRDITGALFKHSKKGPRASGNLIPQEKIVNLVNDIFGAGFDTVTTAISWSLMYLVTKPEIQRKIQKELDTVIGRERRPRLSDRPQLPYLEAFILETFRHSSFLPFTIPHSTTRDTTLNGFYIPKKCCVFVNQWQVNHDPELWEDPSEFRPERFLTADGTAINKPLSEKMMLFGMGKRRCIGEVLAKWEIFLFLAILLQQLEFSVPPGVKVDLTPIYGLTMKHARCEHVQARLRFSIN
The data set can be described thus: Inhibition of human CYP1A2 at 1 uM. In kind it is ADME.

The target of data set [6] is Tubulin (Homo sapiens) (UniProt P68371+Q9H4B7+P0DPH7+P68366+Q13509+Q71U36+P04350+Q3ZCM7+P07437+P68363+Q9BQE3+Q6PEY2+Q13885+Q9BVA1+Q9BUF5). The data set can be described thus: Displacement of [3H]colchicine from tubulin (unknown origin) at 5 uM after 10 mins by DEAE-cellulose filter method. In kind it is protein-complex assay. On the technique in general: In a radioligand displacement assay an active substance lowers the binding of a labelled ligand.

Data set [7] has as its system HCT-15. Nature of the data set: cells. The note with it: Homo sapiens, HCT-15, 72 h.
Description: Cytotoxicity against human HCT15 cells assessed as growth inhibition after 72 hrs by Celltiter-Glo luminescent assay
Data set [8] concerns HT-29. Nature of the data set: cells. The following applies: Homo sapiens, HT-29, 48 h.
Description: Cytotoxicity against human HT-29 cells assessed as growth inhibition after 48 hrs by MTT assay
Data set [9] deals with HCT-116. Nature of the data set: cells. The following applies: Homo sapiens, HCT-116, 72 h.
Description: Cytotoxicity against human HCT116 assessed as growth inhibition after 72 hrs by Celltiter-Glo luminescent assay
The test system of data set [10] is HeLa. The data set can be described thus: cells. The note with it: Homo sapiens, 48 h.
Description: Cytotoxicity against human HeLa cells assessed as growth inhibition after 48 hrs by MTT assay
Data set [11] deals with A549. Nature of the data set: cells. The note with it: Homo sapiens, A549, 48 h.
Description: Cytotoxicity against human A549 cells assessed as growth inhibition after 48 hrs by MTT assay
The nature of data set [12]: Cytotoxicity against human MESSA/DX5 cells assessed as growth inhibition after 72 hrs by Celltiter-Glo luminescent assay. Type of data set: functional, cell-based. The note with it: MES-SA/Dx5, 72 h.
The subject of data set [13] is U-87 MG. The data set can be described thus: Induction of apoptosis in human U87MG assessed as reduction in mitochondrial membrane potential at 30 uM after 24 hrs by JC-1 staining-based fluorescence microscopy. Type of data set: functional, U-87MG ATCC. Set-up: scale not given: the % may be the effect or the level left.
Data set [14] deals with NCI/ADR-RES. Nature of the data set: Cytotoxicity against human NCI/ADR-RES cells assessed as growth inhibition by trypan blue exclusion assay. Type of data set: functional, cell-based.

The structures appear in SMILES notation. pIC50: −log10 of the molar value.

Sequence of CYP2C19 (P33261 whole entry): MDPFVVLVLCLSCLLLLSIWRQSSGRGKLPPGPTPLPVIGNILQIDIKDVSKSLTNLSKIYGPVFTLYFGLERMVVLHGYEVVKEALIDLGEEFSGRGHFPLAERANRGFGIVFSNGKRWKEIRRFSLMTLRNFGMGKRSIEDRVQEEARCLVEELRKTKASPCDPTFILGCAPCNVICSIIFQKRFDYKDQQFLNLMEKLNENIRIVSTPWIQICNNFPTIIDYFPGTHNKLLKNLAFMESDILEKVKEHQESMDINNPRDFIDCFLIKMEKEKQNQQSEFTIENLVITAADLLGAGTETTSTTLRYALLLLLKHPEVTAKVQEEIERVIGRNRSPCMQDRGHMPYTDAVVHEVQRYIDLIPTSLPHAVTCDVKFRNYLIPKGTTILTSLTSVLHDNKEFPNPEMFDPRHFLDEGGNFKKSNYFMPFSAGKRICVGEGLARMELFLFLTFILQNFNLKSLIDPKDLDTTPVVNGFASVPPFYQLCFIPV
Sequence of CYP3A4 (P08684 whole entry): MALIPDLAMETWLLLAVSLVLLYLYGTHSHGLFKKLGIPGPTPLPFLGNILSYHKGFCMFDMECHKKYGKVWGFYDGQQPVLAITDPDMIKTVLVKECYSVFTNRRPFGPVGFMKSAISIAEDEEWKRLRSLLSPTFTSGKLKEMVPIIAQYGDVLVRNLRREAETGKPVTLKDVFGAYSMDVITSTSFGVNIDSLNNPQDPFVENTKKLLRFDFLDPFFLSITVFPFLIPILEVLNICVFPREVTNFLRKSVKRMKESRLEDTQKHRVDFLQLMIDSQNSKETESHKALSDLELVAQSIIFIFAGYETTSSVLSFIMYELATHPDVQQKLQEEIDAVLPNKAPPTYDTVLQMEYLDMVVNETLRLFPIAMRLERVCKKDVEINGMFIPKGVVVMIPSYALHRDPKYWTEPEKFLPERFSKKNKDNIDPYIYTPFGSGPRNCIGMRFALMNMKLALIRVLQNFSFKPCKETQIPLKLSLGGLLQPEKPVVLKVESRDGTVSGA
Sequence of CYP2D6 (P10635 whole entry): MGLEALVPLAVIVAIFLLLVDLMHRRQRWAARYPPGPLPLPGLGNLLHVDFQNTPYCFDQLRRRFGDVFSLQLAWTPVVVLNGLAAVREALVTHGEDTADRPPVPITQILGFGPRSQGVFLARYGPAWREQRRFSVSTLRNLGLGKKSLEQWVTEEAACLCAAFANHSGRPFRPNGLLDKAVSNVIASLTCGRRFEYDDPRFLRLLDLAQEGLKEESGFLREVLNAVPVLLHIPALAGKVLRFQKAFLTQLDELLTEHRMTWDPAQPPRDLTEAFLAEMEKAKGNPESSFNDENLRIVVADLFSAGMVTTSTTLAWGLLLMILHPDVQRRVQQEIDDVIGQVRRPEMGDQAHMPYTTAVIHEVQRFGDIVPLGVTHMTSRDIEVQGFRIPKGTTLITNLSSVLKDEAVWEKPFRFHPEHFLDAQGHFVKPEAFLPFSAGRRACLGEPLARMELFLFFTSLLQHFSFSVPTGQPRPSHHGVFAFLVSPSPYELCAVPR

As for `COc1cc(Sc2c(-n3ccnc3)[nH]c3ccccc23)cc(OC)c1OC`, the inhibition (as a rule, the drop in the measured response relative to a control, in per cent) at 1 µM in [1] stood at 82.5%; in [2], 10.6%; in data set [3] it was 94.5%; in [4], 95.9%; in [5], 22.9%. The inhibition in [6] came out at 92%.

In the case of `COc1cc(Sc2c(-c3nccs3)[nH]c3ccccc23)cc(OC)c1OC`, in data set [6], the inhibition worked out at 72%.

Consider `COc1cc(Sc2c(-c3cn[nH]c3)[nH]c3ccccc23)cc(OC)c1OC`, for which, in data set [6], the inhibition was 81%.

As for `COc1cc(C(=O)c2c(-c3ccoc3)[nH]c3ccccc23)cc(OC)c1OC`, the inhibition in [6] stood at 77%.

Consider `COc1cc(C(=O)c2c(-c3cc[nH]c3)[nH]c3ccccc23)cc(OC)c1OC`, for which, in data set [6], the inhibition was 71%.

Turning to `COc1cc(Sc2c(-c3cccnc3)[nH]c3ccccc23)cc(OC)c1OC`, the inhibition at 1 µM was found to be 84.9% in data set [1], 76.4% in [3], 102% in data set [4] and 23.4% in [5]. The inhibition in data set [6] is 88%.

`COc1cc(Sc2c(-c3cc[nH]n3)[nH]c3ccccc23)cc(OC)c1OC`: in [6], the inhibition was 78%.

On to `COc1cc(Sc2c(-c3cccc(F)c3)[nH]c3ccccc23)cc(OC)c1OC`, for which the inhibition in data set [6] is 75%.

Consider `COc1cc(Sc2c(-c3ccccc3F)[nH]c3ccccc23)cc(OC)c1OC`, for which the inhibition in data set [6] was 74%.

Take `COc1cc(C(=O)c2c(-c3ccco3)[nH]c3ccccc23)cc(OC)c1OC`: the inhibition in [6] was 78%.

Consider `CC[C@]1(O)C[C@@H]2CN(CCc3c([nH]c4ccccc34)[C@@](C(=O)OC)(c3cc4c(cc3OC)N(C)[C@H]3[C@@](O)(C(=O)OC)[C@H](OC(C)=O)[C@]5(CC)C=CCN6CC[C@]43[C@@H]65)C2)C1` [VINBLASTINE], for which the negative logarithm of the IC50 (pIC50) (in general, the IC50 on a negative log10 scale, so that one unit is a factor of ten) in [7] was 7.62; in [8] it was 7.52; in data set [9] it was 8.52; in data set [10], 8.00; in data set [11], 7.70; in [12] it was 6.84.

`COc1cc(C(=O)c2c(-c3ccc[nH]3)[nH]c3ccccc23)cc(OC)c1OC`: the inhibition in [6] amounted to 79%.

Regarding `CC(=O)O[C@H]1C(=O)[C@@]2(C)[C@H]([C@H](OC(=O)c3ccccc3)[C@]3(O)C[C@H](OC(=O)[C@H](O)[C@@H](NC(=O)c4ccccc4)c4ccccc4)C(C)=C1C3(C)C)[C@]1(OC(C)=O)CO[C@@H]1C[C@@H]2O` [PACLITAXEL], the negative-log IC50 (pIC50) in data set [7] was 7.05.

Consider `COc1cc(Sc2c(-n3cncn3)[nH]c3ccccc23)cc(OC)c1OC`, for which the inhibition at 1 µM was 83.9% in data set [1]; under 5% in data set [2]; 51.4% in data set [3]; 93.1% in data set [4]; under 5% in data set [5]. In addition, in [6], the inhibition is 83%.

On to `N#CC(C#N)=NNc1cccc(Cl)c1` [CARBONYL CYANIDE M-CHLOROPHENYLHYDRAZONE], for which the Activity in data set [13] is 50%.

On to `COc1cc(C(O)c2c(-c3cc[nH]c3)[nH]c3ccccc23)cc(OC)c1OC` (stereo not drawn), for which the inhibition in [6] was determined as 70%.

In the case of `COc1cc(Sc2c(-c3ccncc3)[nH]c3ccccc23)cc(OC)c1OC`, the inhibition at 1 µM in data set [1] worked out at 100%; in data set [2], 43.1%; in data set [3], 58%; in data set [4], 100%; in [5], 14.5%. Also, the inhibition in [6] was 91%.

Consider `CCC1=C[C@@H]2CN(C1)Cc1c([nH]c3ccccc13)[C@@](C(=O)OC)(c1cc3c(cc1OC)N(C)[C@H]1[C@@](O)(C(=O)OC)[C@H](OC(C)=O)[C@]4(CC)C=CCN5CC[C@]31[C@@H]54)C2` [VINORELBINE], for which the pIC50 in [14] is 5.30.

`COc1cc(Sc2c(-c3ccc(F)cc3)[nH]c3ccccc23)cc(OC)c1OC`: the inhibition in data set [6] was determined as 74%.

The values are drawn from ChEMBL document CHEMBL2311402 (J Med Chem, 2013).
